Tests used:
barnyard grass [1] = assay: Test Example 3: herbicidal effect by foliage application, Wagner pot (Table 18, symbol H); type: in vivo, barnyard grass (Echinochloa crus-galli); settings: amount of applied herbicide 320 g/ha
Method in brief: (§1)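 Plants were sown in alluvial soil held under 0.1–0.5 cm standing water and grown 14 days in a greenhouse at 25–30 °C. An emulsifiable formulation, water-diluted to the set dose, was then sprayed onto the foliage, and effects were scored three weeks later using previously defined criteria.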

Chinese sprangletop = assay: Test Example 3: herbicidal effect by foliage application, Wagner pot (Table 18, symbol D); type: in vivo, chinese sprangletop (Leptochloa chinensis); settings: amount of applied herbicide 320 g/ha
Method in brief: as §1

rice flat sedge = assay: Test Example 3: herbicidal effect by foliage application, Wagner pot (Table 18, symbol E); type: in vivo, rice flat sedge (Cyperus iria); settings: amount of applied herbicide 320 g/ha
Method in brief: as §1

southern crabgrass [2] = assay: Test Example 4: herbicidal effect by soil treatment (Table 19, symbol F); type: in vivo, southern crabgrass (Digitaria ciliaris); settings: amount of applied herbicide 320 g/ha
Method in brief: (§2)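 Emulsion of test compound, water-diluted to predetermined amount, sprayed on soil after sowing (seed depth ~1.5 cm, sterilized diluvial soil). Greenhouse, 25–30° C. Effect graded at three weeks post-spray.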

green foxtail [3] = assay: Test Example 4: herbicidal effect by soil treatment (Table 19, symbol G); type: in vivo, green foxtail (Setaria viridis); settings: amount of applied herbicide 320 g/ha
Method in brief: as §2

barnyard grass [4] = assay: Test Example 4: herbicidal effect by soil treatment (Table 19, symbol H); type: in vivo, barnyard grass (Echinochloa crus-galli); settings: amount of applied herbicide 320 g/ha
Method in brief: as §2

wild oat [5] = assay: Test Example 4: herbicidal effect by soil treatment (Table 19, symbol I); type: in vivo, wild oat (Avena fatua); settings: amount of applied herbicide 320 g/ha
Method in brief: as §2

blackgrass [6] = assay: Test Example 4: herbicidal effect by soil treatment (Table 19, symbol J); type: in vivo, blackgrass (Alopecurus myosuroides); settings: amount of applied herbicide 320 g/ha
Method in brief: as §2

Italian ryegrass [7] = assay: Test Example 4: herbicidal effect by soil treatment (Table 19, symbol K); type: in vivo, Italian ryegrass (Lolium multiflorum); settings: amount of applied herbicide 320 g/ha
Method in brief: as §2

windgrass [8] = assay: Test Example 4: herbicidal effect by soil treatment (Table 19, symbol L); type: in vivo, windgrass (Apera spica-venti); settings: amount of applied herbicide 320 g/ha
Method in brief: as §2

velvetleaf [9] = assay: Test Example 4: herbicidal effect by soil treatment (Table 19, symbol M); type: in vivo, velvetleaf (Abutilon theophrasti); settings: amount of applied herbicide 320 g/ha
Method in brief: as §2

redroot pigweed [10] = assay: Test Example 4: herbicidal effect by soil treatment (Table 19, symbol N); type: in vivo, redroot pigweed (Amaranthus retroflexus); settings: amount of applied herbicide 320 g/ha
Method in brief: as §2

lambsquarters [11] = assay: Test Example 4: herbicidal effect by soil treatment (Table 19, symbol O); type: in vivo, lambsquarters (Chenopodium album); settings: amount of applied herbicide 320 g/ha
Method in brief: as §2

chickweed [12] = assay: Test Example 4: herbicidal effect by soil treatment (Table 19, symbol P); type: in vivo, common chickweed (Stellaria media); settings: amount of applied herbicide 320 g/ha
Method in brief: as §2

false cleavers = assay: Test Example 4: herbicidal effect by soil treatment (Table 19, symbol Q); type: in vivo, false cleavers (Galium spurium); settings: amount of applied herbicide 320 g/ha
Method in brief: as §2

persian speedwell [13] = assay: Test Example 4: herbicidal effect by soil treatment (Table 19, symbol R); type: in vivo, Persian speedwell (Veronica persica); settings: amount of applied herbicide 320 g/ha
Method in brief: as §2

southern crabgrass [14] = assay: Test Example 5: herbicidal effect by foliage application, plastic box (Table 20, symbol F); type: in vivo, southern crabgrass (Digitaria ciliaris); settings: foliage application, 320 g/ha, evaluated three weeks after application
Method in brief: (§3)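 Post-emergence foliar test in sterilized diluvial soil. Compound applied as water-diluted emulsion at a predetermined rate to 14-day-old plants; evaluation at three weeks.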

green foxtail [15] = assay: Test Example 5: herbicidal effect by foliage application, plastic box (Table 20, symbol G); type: in vivo, green foxtail (Setaria viridis); settings: foliage application, 320 g/ha, evaluated three weeks after application
Method in brief: as §3

barnyard grass [16] = assay: Test Example 5: herbicidal effect by foliage application, plastic box (Table 20, symbol H); type: in vivo, barnyard grass (Echinochloa crus-galli); settings: foliage application, 320 g/ha, evaluated three weeks after application
Method in brief: as §3

wild oat [17] = assay: Test Example 5: herbicidal effect by foliage application, plastic box (Table 20, symbol I); type: in vivo, wild oat (Avena fatua); settings: foliage application, 320 g/ha, evaluated three weeks after application
Method in brief: as §3

blackgrass [18] = assay: Test Example 5: herbicidal effect by foliage application, plastic box (Table 20, symbol J); type: in vivo, blackgrass (Alopecurus myosuroides); settings: foliage application, 320 g/ha, evaluated three weeks after application
Method in brief: as §3

Italian ryegrass [19] = assay: Test Example 5: herbicidal effect by foliage application, plastic box (Table 20, symbol K); type: in vivo, Italian ryegrass (Lolium multiflorum); settings: foliage application, 320 g/ha, evaluated three weeks after application
Method in brief: as §3

windgrass [20] = assay: Test Example 5: herbicidal effect by foliage application, plastic box (Table 20, symbol L); type: in vivo, windgrass (Apera spica-venti); settings: foliage application, 320 g/ha, evaluated three weeks after application
Method in brief: as §3

velvetleaf [21] = assay: Test Example 5: herbicidal effect by foliage application, plastic box (Table 20, symbol M); type: in vivo, velvetleaf (Abutilon theophrasti); settings: foliage application, 320 g/ha, evaluated three weeks after application
Method in brief: as §3

redroot pigweed [22] = assay: Test Example 5: herbicidal effect by foliage application, plastic box (Table 20, symbol N); type: in vivo, redroot pigweed (Amaranthus retroflexus); settings: foliage application, 320 g/ha, evaluated three weeks after application
Method in brief: as §3

lambsquarters [23] = assay: Test Example 5: herbicidal effect by foliage application, plastic box (Table 20, symbol O); type: in vivo, lambsquarters (Chenopodium album); settings: foliage application, 320 g/ha, evaluated three weeks after application
Method in brief: as §3

chickweed [24] = assay: Test Example 5: herbicidal effect by foliage application, plastic box (Table 20, symbol P); type: in vivo, common chickweed (Stellaria media); settings: foliage application, 320 g/ha, evaluated three weeks after application
Method in brief: as §3

persian speedwell [25] = assay: Test Example 5: herbicidal effect by foliage application, plastic box (Table 20, symbol R); type: in vivo, Persian speedwell (Veronica persica); settings: foliage application, 320 g/ha, evaluated three weeks after application
Method in brief: as §3

For `Cc1ccc2sc(-c3ccccc3)c(-c3c(O)c(C)nn(C)c3=O)c2c1` [2-132], the “herbicidal effect on H: barnyard grass” value (barnyard grass [1]) was 0 (Herbicidal rate of 5% or less (almost no effect)), the “herbicidal effect on D: Chinese sprangletop” value (Chinese sprangletop) was 0 (Herbicidal rate of 5% or less (almost no effect)) and the “herbicidal effect on E: rice flat sedge” value (rice flat sedge) was 5 (Herbicidal rate of 90% or more (almost completely withered)). The “F: southern crabgrass, herbicidal effect rating” value (southern crabgrass [2]) was 1 (Herbicidal rate of 5% or more and less than 20%), the “G: green foxtail, herbicidal effect rating” value (green foxtail [3]) was 3 (Herbicidal rate of 40% or more and less than 70%) and the “H: barnyard grass, herbicidal effect rating” value (barnyard grass [4]) was 3 (Herbicidal rate of 40% or more and less than 70%). The “I: wild oat, herbicidal effect rating” value (wild oat [5]) was 0 (Herbicidal rate of 5% or less (almost no effect)), the “J: blackgrass, herbicidal effect rating” value (blackgrass [6]) was 0 (Herbicidal rate of 5% or less (almost no effect)) and the “K: Italian ryegrass, herbicidal effect rating” value (Italian ryegrass [7]) was 2 (Herbicidal rate of 20% or more and less than 40%). The “L: windgrass, herbicidal effect rating” value (windgrass [8]) was 0 (Herbicidal rate of 5% or less (almost no effect)), the “M: velvetleaf, herbicidal effect rating” value (velvetleaf [9]) was 0 (Herbicidal rate of 5% or less (almost no effect)) and the “N: redroot pigweed, herbicidal effect rating” value (redroot pigweed [10]) was 0 (Herbicidal rate of 5% or less (almost no effect)). For the same compound, the “O: lambsquarters, herbicidal effect rating” value (lambsquarters [11]) was 5 (Herbicidal rate of 90% or more (almost completely withered)), the “P: chickweed, herbicidal effect rating” value (chickweed [12]) was 4 (Herbicidal rate of 70% or more and less than 90%) and the “Q: false cleavers, herbicidal effect rating” value (false cleavers) was 0 (Herbicidal rate of 5% or less (almost no effect)). For the same compound, the “R: persian speedwell, herbicidal effect rating” value (persian speedwell [13]) was 3 (Herbicidal rate of 40% or more and less than 70%), the “herbicidal effect on F: southern crabgrass” value (southern crabgrass [14]) was 1 (Herbicidal rate of 5% or more and less than 20%) and the “herbicidal effect on G: green foxtail” value (green foxtail [15]) was 3 (Herbicidal rate of 40% or more and less than 70%). For the same compound, the “herbicidal effect on H: barnyard grass” value (barnyard grass [16]) was 0 (Herbicidal rate of 5% or less (almost no effect)), the “herbicidal effect on I: wild oat” value (wild oat [17]) was 0 (Herbicidal rate of 5% or less (almost no effect)) and the “herbicidal effect on J: blackgrass” value (blackgrass [18]) was 2 (Herbicidal rate of 20% or more and less than 40%). The “herbicidal effect on K: Italian ryegrass” value (Italian ryegrass [19]) was 5 (Herbicidal rate of 90% or more (almost completely withered)), the “herbicidal effect on L: windgrass” value (windgrass [20]) was 0 (Herbicidal rate of 5% or less (almost no effect)) and the “herbicidal effect on M: velvetleaf” value (velvetleaf [21]) was 3 (Herbicidal rate of 40% or more and less than 70%). The “herbicidal effect on N: redroot pigweed” value (redroot pigweed [22]) was 5 (Herbicidal rate of 90% or more (almost completely withered)), the “herbicidal effect on O: lambsquarters” value (lambsquarters [23]) was 4 (Herbicidal rate of 70% or more and less than 90%) and the “herbicidal effect on P: chickweed” value (chickweed [24]) was 5 (Herbicidal rate of 90% or more (almost completely withered)). The “herbicidal effect on R: persian speedwell” value (persian speedwell [25]) was 5 (Herbicidal rate of 90% or more (almost completely withered)).

For `Cc1ccc2sc(-c3ccc([N+](=O)[O-])cc3)c(-c3c(O)c(C)nn(C)c3=O)c2c1` [2-144], the “herbicidal effect on H: barnyard grass” value (barnyard grass [1]) was 2 (Herbicidal rate of 20% or more and less than 40%), the “herbicidal effect on D: Chinese sprangletop” value (Chinese sprangletop) was 0 (Herbicidal rate of 5% or less (almost no effect)) and the “herbicidal effect on E: rice flat sedge” value (rice flat sedge) was 3 (Herbicidal rate of 40% or more and less than 70%). For the same compound, the “F: southern crabgrass, herbicidal effect rating” value (southern crabgrass [2]) was 2 (Herbicidal rate of 20% or more and less than 40%), the “G: green foxtail, herbicidal effect rating” value (green foxtail [3]) was 0 (Herbicidal rate of 5% or less (almost no effect)) and the “H: barnyard grass, herbicidal effect rating” value (barnyard grass [4]) was 0 (Herbicidal rate of 5% or less (almost no effect)). The “I: wild oat, herbicidal effect rating” value (wild oat [5]) was 0 (Herbicidal rate of 5% or less (almost no effect)), the “J: blackgrass, herbicidal effect rating” value (blackgrass [6]) was 0 (Herbicidal rate of 5% or less (almost no effect)) and the “K: Italian ryegrass, herbicidal effect rating” value (Italian ryegrass [7]) was 0 (Herbicidal rate of 5% or less (almost no effect)). For the same compound, the “L: windgrass, herbicidal effect rating” value (windgrass [8]) was 0 (Herbicidal rate of 5% or less (almost no effect)), the “M: velvetleaf, herbicidal effect rating” value (velvetleaf [9]) was 0 (Herbicidal rate of 5% or less (almost no effect)) and the “N: redroot pigweed, herbicidal effect rating” value (redroot pigweed [10]) was 3 (Herbicidal rate of 40% or more and less than 70%). For the same compound, the “O: lambsquarters, herbicidal effect rating” value (lambsquarters [11]) was 3 (Herbicidal rate of 40% or more and less than 70%), the “P: chickweed, herbicidal effect rating” value (chickweed [12]) was 1 (Herbicidal rate of 5% or more and less than 20%) and the “Q: false cleavers, herbicidal effect rating” value (false cleavers) was 0 (Herbicidal rate of 5% or less (almost no effect)). The “R: persian speedwell, herbicidal effect rating” value (persian speedwell [13]) was 2 (Herbicidal rate of 20% or more and less than 40%), the “herbicidal effect on F: southern crabgrass (criteria 0-5)” value (southern crabgrass [14]) was 0 (Herbicidal rate of 5% or less (almost no effect)) and the “herbicidal effect on G: green foxtail (criteria 0-5)” value (green foxtail [15]) was 0 (Herbicidal rate of 5% or less (almost no effect)). For the same compound, the “herbicidal effect on H: barnyard grass (criteria 0-5)” value (barnyard grass [16]) was 0 (Herbicidal rate of 5% or less (almost no effect)), the “herbicidal effect on I: wild oat (criteria 0-5)” value (wild oat [17]) was 0 (Herbicidal rate of 5% or less (almost no effect)) and the “herbicidal effect on J: blackgrass (criteria 0-5)” value (blackgrass [18]) was 0 (Herbicidal rate of 5% or less (almost no effect)). For the same compound, the “herbicidal effect on K: Italian ryegrass (criteria 0-5)” value (Italian ryegrass [19]) was 4 (Herbicidal rate of 70% or more and less than 90%), the “herbicidal effect on L: windgrass (criteria 0-5)” value (windgrass [20]) was 0 (Herbicidal rate of 5% or less (almost no effect)) and the “herbicidal effect on M: velvetleaf (criteria 0-5)” value (velvetleaf [21]) was 2 (Herbicidal rate of 20% or more and less than 40%). The “herbicidal effect on N: redroot pigweed (criteria 0-5)” value (redroot pigweed [22]) was 5 (Herbicidal rate of 90% or more (almost completely withered)), the “herbicidal effect on O: lambsquarters (criteria 0-5)” value (lambsquarters [23]) was 3 (Herbicidal rate of 40% or more and less than 70%) and the “herbicidal effect on P: chickweed (criteria 0-5)” value (chickweed [24]) was 4 (Herbicidal rate of 70% or more and less than 90%). The “herbicidal effect on R: persian speedwell (criteria 0-5)” value (persian speedwell [25]) was 5 (Herbicidal rate of 90% or more (almost completely withered)).
